According to patent US8741578B2, “Methods of detecting chronic lymphocytic leukemia with Hsp90 and ZAP-70” (The Regents of the University of California, priority 2004, dated 2014):
Values joined by “and” are separate entries in the source; they are usually repeats but may differ in a detail not shown here. Equal entries are not always repeated. “Also recorded” adds a separate entry of the source. Where two headings read alike, the source gives them in different places.

How the values were obtained:
[1] = test system: ZAP-70 in CLL cells; assay: ZAP-70 expression in CLL cells after treatment (intracellular staining, immunoblot); format: cell-based, human; conditions: for IC50: read-out: IC50, dose-dependent reduction of leukemia-cell ZAP-70 expression
[2] = test system: Purified native Hsp90 protein; conditions: read-out: IC50, inhibition of binding of Hsp90 to biotin-GM
[3] = test system: Hsp90 from ZAP-70-negative CLL cells, normal B and T cells; conditions: read-out: IC50, inhibition of binding of Hsp90 to biotin-GM; lysates from ZAP-70-negative CLL cells or normal T or B cells
[4] = test system: CLL cells in whole blood; assay: Whole blood apoptosis test of CLL subpopulation (DiOC6, anti-CD5/anti-CD19); conditions: different concentrations, room temperature
[5] = test system: B-cell receptor (BCR) signaling in ZAP-70+ CLL cells; assay: B-cell receptor signaling after anti-μ stimulation in ZAP-70+ CLL cells (IP/immunoblot)
[6] = test system: CLL cells; assay: Apoptosis of primary CLL cells by flow cytometry (DiOC6/PI); conditions: 100 nM; for Apoptosis after treatment: ZAP-70+ CLL cells
[7] = test system: ZAP-70 in T cells; assay: ZAP-70 expression in T cells after treatment (flow cytometry); format: cell-based, human
[8] = test system: Ad-ZAP-70 transduced CLL cells; assay: Apoptosis of ZAP-70-negative CLL cells transduced with Ad-ZAP-70; format: cell-based, human; conditions: 100 nM, 48 hours after 48 hours of transduction; P≦0.001
Description: . (A) ZAP-70-negative leukemia cells were transduced with adenovirus expressing ZAP-70 (Ad-ZAP-70—solid histogram) and β-galactosidase (Ad-LacZ—bold line histogram). Cells were kept in media as a control (dashed line histogram). After 48 hours in culture Ad-ZAP-70 but not Ad-LacZ transduced cells expressed the ZAP-70 transgene (46% expression with a mean fluorescence intensity ratio (MFIR) of 2.8). (B) ZAP-70-negative CLL cells were transduced with adenovirus and after 48 hours they were harvested and lysed. Immunoprecipitations (IP) and immunoblots were performed with the antibodies indicated. […]
cDNA of ZAP-70 extracted from normal T cells was cloned into the CMV promoter and polyadenylation signal of pcDNA3. This construct was then subcloned into the shuttle vector MCS(SK)pXCX2. This shuttle vector was cotransfected with pJM17 into 293 cells using the calcium phosphate method.
Isolated adenovirus plaques were harvested and used to infect 293 cells. High titer adenovirus preparations were obtained. CLL cells were infected with either Ad-ZAP-70 or a control adenovirus vector (Ad-LacZ) for 48 hours at 37° C. using a multiplicity of infection (MOI) of 1000.
. ZAP-70-negative CLL cells were transduced with an adenovirus vector encoding ZAP-70 (Ad-ZAP-70) or β-galactosidase (Ad-LacZ) as a control. […]

IC50 [2] [nM] | IC50 ([1]; Homo sapiens, CLL cell, 24 h) [nM] | Compound | IC50 ([1]; ZAP-70+ CLL cells, after 24 hours) [nM] | IC50 [3] [nM] | Induction of apoptosis in whole blood CLL subpopulation [4] | Effect on level/degradation of p72Syk, IKK-α ([5]; ZAP-70+ CLL cells) | Response to BCR ligation with anti-μ (p72Syk phosphorylation, IκB-α degradation) ([5]; prior treatment for ≧24 hours) | Post-treatment ZAP-70 mean fluorescence intensity (MFI) ([1]; CLL cells, 300 nM, 48 hours, prior to treatment 110) | 17-AAG-induced apoptosis, % ([6]; 48 hours, primary CLL cells, each table row is one patient sample (patient no. 1-25)) | Apoptosis after treatment ([6]; 24 hours) [%] | Apoptosis after treatment ([6]; 72 hours) [%] | Effect on ZAP-70 expression in T cells ([7]; T cells from CLL patients or healthy donors, even at ≧300 nM) | Post-treatment ZAP-70 mean fluorescence intensity (MFI) ([7]; T cells, 300 nM, 48 hours, prior to treatment 210) | Apoptosis compared with non-transduced or Ad-LacZ transduced cells [8]
– | – | CO[C@H]1/C=C\C=C(/C)C(=O)NC2=CC(=O)C(NCCN(C)C)=C(C[C@@H](C)C[C@H](OC)[C@H](O)[C@@H](C)/C=C(\C)[C@@H]1OC(N)=O)C2=O [17-DMAG, 17-(2-dimethylaminoethy)amino-17-demethoxygeldanamycin] | 60 | – | – | – | – | – | – | – | – | – | – | –
600 | 60 | C=CCNC1=C2CC(C)CC(OC)C(O)C(C)/C=C(\C)C(OC(N)=O)C(OC)/C=C\C=C(/C)C(=O)NC(=CC1=O)C2=O (centres unmarked) [17-AAG, 17-allylamino-17-demethoxygeldanamycin] | – | ≥ 300 | exclusively in the ZAP-70 positive cells | did not alter the level of p72^Syk; also recorded: did not induce degradation of p72^Syk or IKK-α | inert to stimulation with anti-μ antibody | 25 | 4.7% and 11.5% and 12.3% and 14.9% and 3.7% and 0.5% and 12.6% and 3.4% and 22.4% and 55.4% and 33.9% and 37.9% and 35.4% and 41.3% and 57.9% and 57.7% and 67.4% and 69.4% and 66.8% and 78.8% and 79.9% and 74.4% and 3.9% and 4.5% and 1.2% | 30 | 50 | did not affect ZAP-70 expression levels in T cells | 190 | significantly higher level of apoptosis
